In test [1] the target is T1, Gamma-aminobutyric acid receptor subunit alpha-2/beta-2/gamma-1 (Human, UniProt P47869+P47870+Q8N1C3).
T1 sequence (Q8N1C3 whole entry): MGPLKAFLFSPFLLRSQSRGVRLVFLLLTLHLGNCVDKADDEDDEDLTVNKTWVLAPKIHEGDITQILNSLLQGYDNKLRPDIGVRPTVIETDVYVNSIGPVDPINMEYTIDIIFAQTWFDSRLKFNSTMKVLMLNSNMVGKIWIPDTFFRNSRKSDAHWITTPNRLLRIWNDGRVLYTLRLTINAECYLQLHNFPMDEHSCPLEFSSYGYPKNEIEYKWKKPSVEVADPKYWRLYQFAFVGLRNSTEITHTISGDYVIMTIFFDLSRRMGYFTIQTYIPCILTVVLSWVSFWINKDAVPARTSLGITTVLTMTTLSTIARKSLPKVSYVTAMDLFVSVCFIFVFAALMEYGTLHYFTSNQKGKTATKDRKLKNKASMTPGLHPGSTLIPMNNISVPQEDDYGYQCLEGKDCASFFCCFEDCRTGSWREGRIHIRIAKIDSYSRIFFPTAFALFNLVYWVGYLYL
T1 sequence (P47869 whole entry): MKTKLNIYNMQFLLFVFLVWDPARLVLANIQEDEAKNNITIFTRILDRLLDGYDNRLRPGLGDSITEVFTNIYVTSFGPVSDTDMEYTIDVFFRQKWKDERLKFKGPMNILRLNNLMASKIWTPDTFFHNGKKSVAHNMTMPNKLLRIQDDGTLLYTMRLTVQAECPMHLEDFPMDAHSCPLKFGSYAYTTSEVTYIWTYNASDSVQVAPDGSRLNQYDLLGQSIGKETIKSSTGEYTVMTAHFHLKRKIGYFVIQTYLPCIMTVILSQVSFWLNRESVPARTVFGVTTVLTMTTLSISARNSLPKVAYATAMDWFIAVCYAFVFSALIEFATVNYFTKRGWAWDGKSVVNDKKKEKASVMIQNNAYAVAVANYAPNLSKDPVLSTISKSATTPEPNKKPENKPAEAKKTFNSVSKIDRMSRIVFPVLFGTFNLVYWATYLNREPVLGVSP
T1 sequence (P47870 whole entry): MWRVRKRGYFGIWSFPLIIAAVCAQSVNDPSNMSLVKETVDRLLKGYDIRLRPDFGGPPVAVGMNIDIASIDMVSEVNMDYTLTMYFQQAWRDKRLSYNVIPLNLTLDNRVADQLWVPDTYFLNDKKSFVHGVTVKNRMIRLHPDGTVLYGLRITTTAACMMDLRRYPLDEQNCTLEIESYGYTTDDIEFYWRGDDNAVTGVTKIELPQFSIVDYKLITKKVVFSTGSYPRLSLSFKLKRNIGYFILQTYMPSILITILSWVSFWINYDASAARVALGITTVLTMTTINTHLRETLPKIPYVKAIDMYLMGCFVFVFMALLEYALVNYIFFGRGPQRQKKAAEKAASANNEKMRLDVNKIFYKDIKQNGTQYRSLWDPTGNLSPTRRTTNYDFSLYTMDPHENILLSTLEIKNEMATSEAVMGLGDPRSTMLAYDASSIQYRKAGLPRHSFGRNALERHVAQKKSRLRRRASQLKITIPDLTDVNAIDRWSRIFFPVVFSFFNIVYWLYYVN
In words: Electrophysiology Assay. The method, then:
Table 2: Electrophysiological experiments were performed using the Roboocyte instrument (MultiChannelSystems, Reutlingen, Germany) on days 3 to 5 after the micro-injection of mRNA. During the experiment the oocytes were constantly superfused by a solution containing (in mM) NaCl 90, KCl 1, HEPES 5, MgCl2 1 CaCl2 1 (pH 7.4). Oocytes were impaled by two glass microelectrodes (resistance: 0.5-0.8 MΩ) which were filled with a solution containing KCl 1M+K-acetate 1.5 M and voltage-clamped to −80 mV. The recordings were performed at room temperature using the Roboocyte two-electrode voltage clamp system (Multichannelsystem). After an initial equilibration period of 1.5 min GABA was added for 1.5 min at a concentration evoking approximately 20% of a maximal current response (EC20). After another rest interval of 2.5 min GABA was again added evoking a response of similar amplitude and shape. […] Current traces were recorded at a digitization rate of 10 Hz during and shortly before and after the GABA application.

Test [2] addresses T2, Gamma-aminobutyric acid receptor subunit alpha-1/beta-3/gamma-2 (Homo sapiens, UniProt P14867+P18507+P28472).
T2 sequence (P14867 whole entry): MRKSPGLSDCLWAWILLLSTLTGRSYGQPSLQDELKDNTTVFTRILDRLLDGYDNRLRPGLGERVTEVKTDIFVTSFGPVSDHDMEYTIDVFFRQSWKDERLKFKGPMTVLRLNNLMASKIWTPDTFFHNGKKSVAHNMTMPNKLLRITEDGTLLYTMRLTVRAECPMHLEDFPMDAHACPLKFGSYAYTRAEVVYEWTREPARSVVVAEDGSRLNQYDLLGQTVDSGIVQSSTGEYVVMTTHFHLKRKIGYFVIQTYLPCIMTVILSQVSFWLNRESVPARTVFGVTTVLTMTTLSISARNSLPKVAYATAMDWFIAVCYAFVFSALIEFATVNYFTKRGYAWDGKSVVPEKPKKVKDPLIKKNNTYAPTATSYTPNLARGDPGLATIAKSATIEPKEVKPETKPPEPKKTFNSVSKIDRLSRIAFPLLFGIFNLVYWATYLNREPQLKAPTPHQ
T2 sequence (P18507 whole entry): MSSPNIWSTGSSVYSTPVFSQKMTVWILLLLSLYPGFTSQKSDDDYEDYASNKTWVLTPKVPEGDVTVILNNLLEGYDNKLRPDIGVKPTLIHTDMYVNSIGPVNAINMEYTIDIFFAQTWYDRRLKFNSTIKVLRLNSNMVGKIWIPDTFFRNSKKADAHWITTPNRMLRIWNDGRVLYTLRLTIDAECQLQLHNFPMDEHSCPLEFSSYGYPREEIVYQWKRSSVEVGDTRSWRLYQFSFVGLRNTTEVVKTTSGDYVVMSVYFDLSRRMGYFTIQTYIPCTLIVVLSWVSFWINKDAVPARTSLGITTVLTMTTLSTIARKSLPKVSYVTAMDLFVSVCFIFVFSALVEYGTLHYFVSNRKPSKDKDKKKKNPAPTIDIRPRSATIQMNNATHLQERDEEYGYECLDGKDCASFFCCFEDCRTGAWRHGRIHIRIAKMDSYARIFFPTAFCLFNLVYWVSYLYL
T2 sequence (P28472 whole entry): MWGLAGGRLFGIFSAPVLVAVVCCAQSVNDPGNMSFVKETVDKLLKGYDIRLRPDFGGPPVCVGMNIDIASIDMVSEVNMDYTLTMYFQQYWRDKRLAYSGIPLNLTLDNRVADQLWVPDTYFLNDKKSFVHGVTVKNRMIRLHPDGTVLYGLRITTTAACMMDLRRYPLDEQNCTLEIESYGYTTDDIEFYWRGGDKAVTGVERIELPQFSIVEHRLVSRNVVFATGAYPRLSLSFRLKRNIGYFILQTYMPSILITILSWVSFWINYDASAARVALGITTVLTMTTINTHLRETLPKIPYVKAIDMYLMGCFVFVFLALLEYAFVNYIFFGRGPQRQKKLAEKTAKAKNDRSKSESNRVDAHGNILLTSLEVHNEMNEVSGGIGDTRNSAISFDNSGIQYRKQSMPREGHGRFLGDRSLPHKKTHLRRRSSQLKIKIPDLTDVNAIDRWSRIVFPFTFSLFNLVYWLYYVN

Turning to `CCc1nnc2n1-c1ccc(C(F)(F)F)c(Cl)c1C(c1c(F)cccc1F)=N[C@H]2C` [US20240002393, Example 108], the figures for the Ki in test [1] and in test [2] were 47 nM and 2370 nM, respectively.

As usually defined, the Ki is a measure of affinity in units of concentration, obtained from inhibition or displacement.
